According to the NIST ThermoML archive (doi:10.1021/acs.jced.8b00132):
Several values for one entry are separate records, joined by “and”; a condition that tells them apart may be missing. Equal values may be shown once.

Conditions: Gas

O=C(C(F)(F)C(F)(F)F)C(F)(C(F)(F)F)C(F)(F)F [dodecafluoro-2-methylpentan-3-one]
Conditions | thermal conductivity
453.04 K, 2349 kPa, transient hot wire | 0.03749 W/m/K
453.05 K, 2432 kPa, transient hot wire | 0.03632 W/m/K
453.06 K, 2213 kPa, transient hot wire | 0.03787 W/m/K
453.06 K, 2283 kPa, transient hot wire | 0.039 W/m/K
453.07 K, 2432 kPa, transient hot wire | 0.03565 W/m/K
453.08 K, 2213 kPa, transient hot wire | 0.03857 W/m/K and 0.03787 W/m/K
453.09 K, 2350 kPa, transient hot wire | 0.03794 W/m/K and 0.03775 W/m/K
453.11 K, 2432 kPa, transient hot wire | 0.03612 W/m/K and 0.03616 W/m/K
453.11 K, 2570 kPa, transient hot wire | 0.03577 W/m/K and 0.03583 W/m/K
453.11 K, 2808 kPa, transient hot wire | 0.03624 W/m/K and 0.03614 W/m/K
453.14 K, 2350 kPa, transient hot wire | 0.03841 W/m/K and 0.03851 W/m/K
453.15 K, 2570 kPa, transient hot wire | 0.0359 W/m/K
453.16 K, 2433 kPa, transient hot wire | 0.03632 W/m/K
453.17 K, 2136 kPa, transient hot wire | 0.03394 W/m/K and 0.03367 W/m/K
453.17 K, 2432 kPa, transient hot wire | 0.03641 W/m/K
453.17 K, 2808 kPa, transient hot wire | 0.03589 W/m/K
453.19 K, 5686 kPa, transient hot wire | 0.04064 W/m/K
453.21 K, 2136 kPa, transient hot wire | 0.03328 W/m/K
453.21 K, 2570 kPa, transient hot wire | 0.03619 W/m/K
453.21 K, 3282 kPa, transient hot wire | 0.03735 W/m/K
453.21 K, 3283 kPa, transient hot wire | 0.03693 W/m/K
453.22 K, 2136 kPa, transient hot wire | 0.03435 W/m/K
453.22 K, 2432 kPa, transient hot wire | 0.03662 W/m/K
453.22 K, 2570 kPa, transient hot wire | 0.03586 W/m/K
453.22 K, 2810 kPa, transient hot wire | 0.03611 W/m/K
453.23 K, 2433 kPa, transient hot wire | 0.03706 W/m/K
453.23 K, 2810 kPa, transient hot wire | 0.03619 W/m/K
453.23 K, 8482 kPa, transient hot wire | 0.04362 W/m/K
453.24 K, 8482 kPa, transient hot wire | 0.04354 W/m/K
453.26 K, 5649 kPa, transient hot wire | 0.04056 W/m/K
453.27 K, 3283 kPa, transient hot wire | 0.03745 W/m/K
453.27 K, 5649 kPa, transient hot wire | 0.04057 W/m/K
453.28 K, 2570 kPa, transient hot wire | 0.03618 W/m/K
453.29 K, 2570 kPa, transient hot wire | 0.03626 W/m/K
453.29 K, 2810 kPa, transient hot wire | 0.03632 W/m/K
453.29 K, 4172 kPa, transient hot wire | 0.03871 W/m/K
453.29 K, 4174 kPa, transient hot wire | 0.03872 W/m/K
453.3 K, 2810 kPa, transient hot wire | 0.03661 W/m/K
453.33 K, 2570 kPa, transient hot wire | 0.03666 W/m/K
453.33 K, 3284 kPa, transient hot wire | 0.03713 W/m/K
453.34 K, 1996 kPa, transient hot wire | 0.03032 W/m/K
453.34 K, 3284 kPa, transient hot wire | 0.03709 W/m/K
453.34 K, 5678 kPa, transient hot wire | 0.04058 W/m/K
453.34 K, 5680 kPa, transient hot wire | 0.0407 W/m/K
453.36 K, 1997 kPa, transient hot wire | 0.02939 W/m/K
453.36 K, 2570 kPa, transient hot wire | 0.03639 W/m/K
453.36 K, 2811 kPa, transient hot wire | 0.03631 W/m/K
453.37 K, 8482 kPa, transient hot wire | 0.04354 W/m/K
453.38 K, 8480 kPa, transient hot wire | 0.0435 W/m/K
453.39 K, 4177 kPa, transient hot wire | 0.03877 W/m/K
453.4 K, 3286 kPa, transient hot wire | 0.03741 W/m/K
453.4 K, 5646 kPa, transient hot wire | 0.04064 W/m/K
453.4 K, 13124 kPa, transient hot wire | 0.04703 W/m/K and 0.04697 W/m/K
453.41 K, 3285 kPa, transient hot wire | 0.03741 W/m/K
453.41 K, 5645 kPa, transient hot wire | 0.04067 W/m/K
453.42 K, 1998 kPa, transient hot wire | 0.02991 W/m/K and 0.02978 W/m/K
453.46 K, 20262 kPa, transient hot wire | 0.05129 W/m/K
453.48 K, 3286 kPa, transient hot wire | 0.03719 W/m/K
453.48 K, 5676 kPa, transient hot wire | 0.04078 W/m/K
453.48 K, 20262 kPa, transient hot wire | 0.05134 W/m/K
453.49 K, 4182 kPa, transient hot wire | 0.03866 W/m/K
453.49 K, 5674 kPa, transient hot wire | 0.04064 W/m/K
453.49 K, 8479 kPa, transient hot wire | 0.04353 W/m/K
453.5 K, 4184 kPa, transient hot wire | 0.03869 W/m/K
453.5 K, 31253 kPa, transient hot wire | 0.05652 W/m/K
453.51 K, 8480 kPa, transient hot wire | 0.04354 W/m/K
453.51 K, 31255 kPa, transient hot wire | 0.05656 W/m/K
453.52 K, 1999 kPa, transient hot wire | 0.03046 W/m/K
453.52 K, 13123 kPa, transient hot wire | 0.04703 W/m/K
453.53 K, 13124 kPa, transient hot wire | 0.04696 W/m/K
453.54 K, 5643 kPa, transient hot wire | 0.04051 W/m/K
453.55 K, 47061 kPa, transient hot wire | 0.06271 W/m/K
453.56 K, 1718 kPa, transient hot wire | 0.02564 W/m/K
453.58 K, 1718 kPa, transient hot wire | 0.02573 W/m/K
453.6 K, 4188 kPa, transient hot wire | 0.03889 W/m/K
453.6 K, 46969 kPa, transient hot wire | 0.06282 W/m/K
453.6 K, 46979 kPa, transient hot wire | 0.06275 W/m/K
453.62 K, 4187 kPa, transient hot wire | 0.03872 W/m/K
453.62 K, 20261 kPa, transient hot wire | 0.05127 W/m/K
453.62 K, 20264 kPa, transient hot wire | 0.05121 W/m/K
453.63 K, 5670 kPa, transient hot wire | 0.04057 W/m/K
453.63 K, 5671 kPa, transient hot wire | 0.04054 W/m/K
453.63 K, 31252 kPa, transient hot wire | 0.05654 W/m/K
453.64 K, 526 kPa, hot wire | 0.02431 W/m/K
453.64 K, 8480 kPa, transient hot wire | 0.04343 W/m/K
453.64 K, 31251 kPa, transient hot wire | 0.05647 W/m/K
453.65 K, 526 kPa, hot wire | 0.02432 W/m/K
453.66 K, 8479 kPa, transient hot wire | 0.04348 W/m/K
453.66 K, 47049 kPa, transient hot wire | 0.06259 W/m/K
453.67 K, 1718 kPa, transient hot wire | 0.02603 W/m/K
453.67 K, 47042 kPa, transient hot wire | 0.06272 W/m/K
453.68 K, 1718 kPa, transient hot wire | 0.02589 W/m/K
453.68 K, 13120 kPa, transient hot wire | 0.04693 W/m/K
453.68 K, 13121 kPa, transient hot wire | 0.04701 W/m/K
453.69 K, 5641 kPa, transient hot wire | 0.04062 W/m/K
453.7 K, 353 kPa, hot wire | 0.02345 W/m/K
453.7 K, 5640 kPa, transient hot wire | 0.04066 W/m/K
453.72 K, 350 kPa, hot wire | 0.02302 W/m/K
453.73 K, 171 kPa, hot wire | 0.02261 W/m/K
453.73 K, 174 kPa, hot wire | 0.0228 W/m/K
453.73 K, 4189 kPa, transient hot wire | 0.03831 W/m/K
453.73 K, 4192 kPa, transient hot wire | 0.03871 W/m/K
453.73 K, 46962 kPa, transient hot wire | 0.06254 W/m/K
453.73 K, 46969 kPa, transient hot wire | 0.06263 W/m/K
453.74 K, 525 kPa, hot wire | 0.0244 W/m/K
453.75 K, 524 kPa, hot wire | 0.02432 W/m/K
453.75 K, 1718 kPa, transient hot wire | 0.02601 W/m/K
453.76 K, 1718 kPa, transient hot wire | 0.02605 W/m/K
453.77 K, 20261 kPa, transient hot wire | 0.05121 W/m/K
453.77 K, 20262 kPa, transient hot wire | 0.0513 W/m/K
453.78 K, 48 kPa, hot wire | 0.02241 W/m/K
453.78 K, 31246 kPa, transient hot wire | 0.0566 W/m/K
453.79 K, 31248 kPa, transient hot wire | 0.05653 W/m/K
453.8 K, 48 kPa, hot wire | 0.02228 W/m/K
453.8 K, 344 kPa, hot wire | 0.0233 W/m/K
453.8 K, 347 kPa, hot wire | 0.02342 W/m/K
453.8 K, 5666 kPa, transient hot wire | 0.0408 W/m/K
453.8 K, 8477 kPa, transient hot wire | 0.04345 W/m/K
453.81 K, 1718 kPa, transient hot wire | 0.02631 W/m/K
453.81 K, 47035 kPa, transient hot wire | 0.06264 W/m/K
453.82 K, 8478 kPa, transient hot wire | 0.0434 W/m/K
453.84 K, 171 kPa, hot wire | 0.02268 W/m/K
453.84 K, 524 kPa, hot wire | 0.02443 W/m/K
453.84 K, 13123 kPa, transient hot wire | 0.04696 W/m/K
453.85 K, 170 kPa, hot wire | 0.02247 W/m/K
453.85 K, 13121 kPa, transient hot wire | 0.04695 W/m/K
453.86 K, 523 kPa, hot wire | 0.02411 W/m/K
453.87 K, 5638 kPa, transient hot wire | 0.0407 W/m/K
453.87 K, 46957 kPa, transient hot wire | 0.06253 W/m/K
453.88 K, 47 kPa, hot wire | 0.02246 W/m/K and 0.02258 W/m/K
453.88 K, 1718 kPa, transient hot wire | 0.02616 W/m/K and 0.02618 W/m/K
453.88 K, 46954 kPa, transient hot wire | 0.06253 W/m/K
453.9 K, 340 kPa, hot wire | 0.02338 W/m/K
453.9 K, 342 kPa, hot wire | 0.02344 W/m/K
453.91 K, 1365 kPa, transient hot wire | 0.02445 W/m/K
453.92 K, 1364 kPa, transient hot wire | 0.02439 W/m/K
453.93 K, 20259 kPa, transient hot wire | 0.05122 W/m/K
453.94 K, 524 kPa, hot wire | 0.02452 W/m/K
453.94 K, 1718 kPa, transient hot wire | 0.02654 W/m/K
453.94 K, 1719 kPa, transient hot wire | 0.02663 W/m/K
453.94 K, 20259 kPa, transient hot wire | 0.05128 W/m/K
453.94 K, 31248 kPa, transient hot wire | 0.05655 W/m/K
453.95 K, 170 kPa, hot wire | 0.0227 W/m/K and 0.02256 W/m/K
453.95 K, 524 kPa, hot wire | 0.02446 W/m/K
453.95 K, 31244 kPa, transient hot wire | 0.05645 W/m/K
453.95 K, 47020 kPa, transient hot wire | 0.06258 W/m/K
453.96 K, 47012 kPa, transient hot wire | 0.06261 W/m/K
453.98 K, 48 kPa, hot wire | 0.02243 W/m/K and 0.02253 W/m/K
454.01 K, 338 kPa, hot wire | 0.02346 W/m/K
454.02 K, 339 kPa, hot wire | 0.02333 W/m/K
454.02 K, 13121 kPa, transient hot wire | 0.047 W/m/K and 0.04696 W/m/K
454.02 K, 46938 kPa, transient hot wire | 0.06262 W/m/K
454.02 K, 46945 kPa, transient hot wire | 0.06264 W/m/K
454.06 K, 523 kPa, hot wire | 0.02445 W/m/K
454.07 K, 170 kPa, hot wire | 0.02273 W/m/K
454.07 K, 522 kPa, hot wire | 0.02433 W/m/K
454.07 K, 1364 kPa, transient hot wire | 0.02449 W/m/K
454.07 K, 1365 kPa, transient hot wire | 0.02446 W/m/K
454.07 K, 1718 kPa, transient hot wire | 0.02688 W/m/K and 0.02682 W/m/K
454.08 K, 169 kPa, hot wire | 0.02266 W/m/K
454.09 K, 48 kPa, hot wire | 0.02257 W/m/K
454.1 K, 48 kPa, hot wire | 0.0225 W/m/K
454.1 K, 20256 kPa, transient hot wire | 0.0513 W/m/K and 0.05118 W/m/K
454.1 K, 31241 kPa, transient hot wire | 0.05644 W/m/K
454.1 K, 31244 kPa, transient hot wire | 0.05644 W/m/K
454.11 K, 47006 kPa, transient hot wire | 0.06269 W/m/K
454.13 K, 337 kPa, hot wire | 0.02342 W/m/K
454.13 K, 338 kPa, hot wire | 0.0234 W/m/K
